# Measured values reported in patent publication US5922871A, “Terephthalamide derivatives” (Dongwha Pharmaceutical Ind. Co., Ltd., priority 1997, dated 1999).
# What was measured:
# [1] = target: T1, HIV reverse transcriptase (HIV-RT) (Human immunodeficiency virus type 1 group M subtype B, UniProt P04585); test: in vitro inhibition test against HIV reverse transcriptase; format: biochemical, HIV (AIDS virus); conditions: read-out: Inhibitory effect of HIV-RT; for inhibition at 0.1 µg/mL: 0.1 μg/ml; for inhibition at 1 µg/mL: 1 μg/ml
# T1 construct: purchased Boehringer Mannheim
# Experimental: Experiment 3: The in vitro inhibition test against HIV reverse transcriptase
# The inhibitory activity in vitro was measured using a non-radioactive reverse transcriptase assay Kit (Boehringer Mannheim).
# At first, 20 μl(40 ng) HIV-RT was added to the wells coated with streptavidin and with the addition of 20 μl, reaction mixture containing template/primer hybrid poly(A)/oligo(dT)15 and DIG-(digoxigenin)-dUTP, biotin-dUTP and TTP, 20 μl test compound was added and reacted at 37° C. for 1 hour. The control without test compound was used for the comparison of related activity. Since DNA containing nucleotide labeled with digoxigenin and biotine was prepared by the action of HIV-RT, it was combined with streptavidin coated at the bottom of the wells. After the reaction was completed, remaining impurities were removed by washing each well with 20 μl buffer solution (pH 7.0) for 30 seconds 5 times and with the addition of 200 μl anti-DIG-POD antibody, the mixture was reacted at 37° C. for 1 hour. For the removal of remaining impurities again, the reacting solution was washed with a buffer solution and with the addition of 200μl ABTS™ each, a substrate of POD(peroxidase), the solution was reacted at room temperature for 30 minutes. The absorbance was read by ELISA reader at 405 nm for the assay of reverse transcriptase activity and its inhibition activity.
# [2] = target: T2, HBV polymerase reverse transcriptase (HBV-RT) (Hepatitis B virus genotype D subtype ayw, UniProt P03156); test: inhibitory activity against HBV polymerase in vitro (reverse transcriptase activity); format: biochemical; conditions: read-out: Inhibitory effect of HBV-RT; for inhibition at 0.1 µg/mL: 0.1 μg/ml; for inhibition at 1 µg/mL: 1 μg/ml
# T2 construct: made in house; host or cells: E. coli
# Source text: Experiment 1: The inhibitory activity against HBV polymerase in vitro.
# Recently, the inventors of the present invention have produced a recombinant HBV polymerase that is expressed from E.coli transformant, measured its enzyme activity and filed patent applications thereof [Korean Patent Application Nos. 94-3918, 96-33998 and 96-63255].
# The inventions have established a method of measuring the reverse transcriptase activity of HBV polymerase in vitro. The fundamental principle is the same as the ELISA method, and after reacting the substrate with biotin- and DIG-modified nucleotide, a method of recognizing the polymerized substrate as anti-DIG antibody with peroxidase was used. […] and 20 μ of test compound were mixed and reacted at 14~30° C. for 18~24 hours. Then, the inhibitory effect of test compound against reverse trascriptase activity in the HBV polymerase was examined, compared with the results of control tests without the test compound.
# T2 sequence (P03156 whole entry): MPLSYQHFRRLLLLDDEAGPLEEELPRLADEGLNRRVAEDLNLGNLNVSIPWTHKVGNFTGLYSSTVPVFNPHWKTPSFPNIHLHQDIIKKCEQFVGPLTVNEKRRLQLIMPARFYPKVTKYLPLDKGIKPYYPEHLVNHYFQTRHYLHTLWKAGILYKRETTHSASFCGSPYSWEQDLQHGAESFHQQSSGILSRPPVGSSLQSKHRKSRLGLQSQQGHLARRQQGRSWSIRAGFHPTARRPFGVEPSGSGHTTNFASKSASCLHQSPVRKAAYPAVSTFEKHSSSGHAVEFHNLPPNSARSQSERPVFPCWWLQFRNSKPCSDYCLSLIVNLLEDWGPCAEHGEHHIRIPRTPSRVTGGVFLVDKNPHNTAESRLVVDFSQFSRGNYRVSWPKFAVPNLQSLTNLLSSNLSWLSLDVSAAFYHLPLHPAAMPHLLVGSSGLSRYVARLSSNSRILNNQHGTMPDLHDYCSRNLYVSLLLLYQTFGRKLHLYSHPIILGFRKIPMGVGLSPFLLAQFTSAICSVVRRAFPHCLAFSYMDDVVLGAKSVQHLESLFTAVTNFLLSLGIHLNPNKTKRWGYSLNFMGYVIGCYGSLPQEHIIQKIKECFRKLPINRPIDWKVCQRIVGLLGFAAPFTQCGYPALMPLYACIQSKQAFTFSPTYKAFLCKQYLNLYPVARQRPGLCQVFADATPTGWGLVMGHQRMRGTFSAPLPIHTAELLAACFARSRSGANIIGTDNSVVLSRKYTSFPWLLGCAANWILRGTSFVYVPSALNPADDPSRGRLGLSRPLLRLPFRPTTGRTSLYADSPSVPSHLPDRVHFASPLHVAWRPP
Structure (SMILES),inhibition at 0.1 µg/mL [1],inhibition at 1 µg/mL [1],inhibition at 0.1 µg/mL [2],inhibition at 1 µg/mL [2]
"CC(C)Nc1cccnc1N1CCN(C(=O)c2ccc(C(=O)NCCN3CCOCC3)cc2)CC1 [Compound No. 79, 4-[1-[3-(Isopropylamino)-2-pyridyl]piperazin-4-yl-carbonyl]-1-[N-[2-(morpholin-4-yl)ethyl]carbamoyl]benzene]",59%,71%,65%,72%
"CCN1CCN(C(=O)c2ccc(C(=O)N3CCN(c4ncccc4NC(C)C)CC3)cc2)CC1 [Compound No. 21, 4-Ethyl-1-[4-[1-[3-(isopropylamino)-2-pyridyl]piperazin-4-yl-arbonyl]benzoyl]piperazine]",20%,64%,–,–
"CC(C)Nc1cccnc1N1CCN(C(=O)c2ccc(C(=O)N[C@@H](CO)C(C)C)cc2)CC1 [Compound No. 39, 1-[N-[(1R)-2-Hydroxy-1-(1-methylethyl)ethyl]carbamoyl]-4-[1-[3-(isopropylamino)-2-pyridyl]piperazin-4-yl-carbonyl]benzene]",25%,75%,30%,78%
"CC(C)Nc1cccnc1N1CCN(C(=O)c2ccc(C(=O)N(C)CCO)cc2)CC1 [Compound No. 5, 1-[N-(2-Hydroxyethyl)-N-methylcarbamoyl]-4-[1-[3-(isopropylamino)-2-pyridyl]piperazin-4-yl-carbonyl]benzene]",43%,71%,40%,48%
"CC(C)Nc1cccnc1N1CCN(C(=O)c2ccc(C(=O)N[C@H](CO)CC3CCCCC3)cc2)CC1 [Compound No. 47, 1-[N-[(1S)-1-(Cyclohexylmethyl)-2-hydroxyethyl]carbamoyl]-4-[1-[3-(isopropylamino)-2-pyridyl]piperazin-4-yl-carbonyl]benzene]",43%,54%,–,–
"CC(C)Nc1cccnc1N1CCN(C(=O)c2ccc(C(=O)N[C@@H](C)CO)cc2)CC1 [Compound No. 35, 1-[N-[(1S)-2-Hydroxy-1-methylethyl]carbamoyl]-4-[1-[3-(isopropylamino)-2-pyridyl]piperazin-4-yl-carbonyl]benzene]",–,–,62%,82%
"CCNc1cccnc1N1CCN(C(=O)c2ccc(C(=O)N3CCN(CCO)CC3)cc2)CC1 [Compound No. 33, 1-[4-[1-[3-(Ethylamino)-2-pyridyl]piperazin-4-yl-carbonyl]benzoyl]-4-(2-hydroxyethyl)piperazine]",–,–,37%,69%
"CC(C)Nc1cccnc1N1CCN(C(=O)c2ccc(C(=O)N3CCN(CCOCCO)CC3)cc2)CC1 [Compound No. 32, 4-[2-(2-Hydroxyethoxy)ethyl]-1-[4-[1-[3-(isopropylamino)-2-pyridyl]piperazin-4-yl-carbonyl]benzoyl]piperazine]",27%,58%,40%,71%
"CC(C)Nc1cccnc1N1CCN(C(=O)c2ccc(C(=O)N[C@H](CO)c3ccccc3)cc2)CC1 [Compound No. 48, 1-[N-[(1S)-2-Hydroxy-1-phenylethyl]carbamoyl]-4-[1-[3-(isopropylamino)-2-pyridyl]piperazin-4-yl-carbonyl]benzene]",46%,51%,61%,80%
"CC(C)Nc1cccnc1N1CCN(C(=O)c2ccc(C(=O)NCCCN3CCOCC3)cc2)CC1 [Compound No. 80, 4-[1-[3-(Isopropylamino)-2-pyridyl]piperazin-4-yl-carbonyl]-1-[N-[3-(morpholin-4-yl)propyl]carbamoyl]benzene]",43%,56%,40%,66%
"CC(C)Nc1cccnc1N1CCN(C(=O)c2ccc(C(=O)N3CCN(C)CC3)cc2)CC1 [Compound No. 20, 1-[4-[1-[3-(Isopropylamino)-2-pyridyl]piperazin-4-yl-carbonyl]benzoyl]-4-methylpiperazine]",–,–,43%,58%
"CC(C)Nc1cccnc1N1CCN(C(=O)c2ccc(C(=O)NC(C)(C)CO)cc2)CC1 [Compound No. 34, 1-[N-(1,1-Dimethyl-2-hydroxyethyl)carbamoyl]-4-[1-[3-(isopropylamino)-2-pyridyl]piperazin-4-yl-carbonyl]benzene]",43%,51%,41%,53%
"CC(C)Nc1cccnc1N1CCN(C(=O)c2ccc(C(=O)N[C@H](CO)C(C)C)cc2)CC1 [Compound No. 38, 1-[N-[(1S)-2-Hydroxy-1-(1-methylethyl)ethyl]carbamoyl]-4-[1-[3-(isopropylamino)-2-pyridyl]piperazin-4-yl-carbonyl]benzene]",20%,78%,50%,67%
"CC(O)CN(CC(C)O)C(=O)c1ccc(C(=O)N2CCN(c3ncccc3NC(C)C)CC2)cc1 (stereo not shown) [Compound No. 16, 1-[N,N-Bis(2-hydroxypropyl)carbamoyl]-4-[1-[3-(isopropylamino)-2-pyridyl]piperazin-4-yl-carbonyl]benzene]",52%,65%,45%,78%
"CC(C)Nc1cccnc1N1CCN(C(=O)c2ccc(C(=O)NCC3CCCO3)cc2)CC1 (stereo not shown) [Compound No. 72, 4-[1-[3-(Isopropylamino)-2-pyridyl]piperazin-4-yl-carbonyl]-1-[N-[(tetrahydrofuran-2-yl)methyl]carbamoyl]benzene]",–,–,51%,63%
"CCCN(CCO)C(=O)c1ccc(C(=O)N2CCN(c3ncccc3NC(C)C)CC2)cc1 [Compound No. 7, 1-[N-(2-Hydroxyethyl)-N-propylcarbamoyl]-4-[1-[3-(isopropylamino)-2-pyridyl]piperazin-4-yl-carbonyl]benzene]",21%,60%,–,–
"CCNc1cccnc1N1CCN(C(=O)c2ccc(C(=O)N(CC)CCO)cc2)CC1 [Compound No. 18, 1-[N-Ethyl-N-(2-hydroxyethyl)carbamoyl]-4-[1-[3-(ethylamino)-2-pyridyl]piperazin-4-yl-carbonyl]benzene]",–,–,28%,63%
"CC(C)Nc1cccnc1N1CCN(C(=O)c2ccc(C(=O)N3CCSCC3)cc2)CC1 [Compound No. 77, 4-[1-[3-(Isopropylamino)-2-pyridyl]piperazin-4-yl-carbonyl]-1-(thiomorpholin-4-yl-carbonyl)benzene]",28%,40%,–,–
"CC(C)Nc1cccnc1N1CCN(C(=O)c2ccc(C(=O)NCCOCCO)cc2)CC1 [Compound No. 17, 1-[N-[2-(2-Hydroxyethoxy)ethyl]carbamoyl]-4-[1-[3-(isopropylamino)-2-pyridyl]piperazin-4-yl-carbonyl]benzene]",35%,53%,–,–
"CCN(CC)C(=O)c1ccc(C(=O)N2CCN(c3ncccc3NC(C)C)CC2)cc1 [Compound No. 13, 1-[N,N-Diethylcarbamoyl]-4-[1-[3-(isopropylamino)-2-pyridyl]piperazin-4-yl-carbonyl]benzene]",–,–,55%,70%
"CC(C)Nc1cccnc1N1CCN(C(=O)c2ccc(C(=O)N(C(C)C)C(C)C)cc2)CC1 [Compound No. 14, 1-[N,N-Bis(1-methylethyl)carbamoyl]-4-[1-[3-(isopropylamino)-2-pyridyl]piperazin-4-yl-carbonyl]benzene]",52%,59%,–,–
"CC(C)Nc1cccnc1N1CCN(C(=O)c2ccc(C(=O)NCCN3CCCCC3)cc2)CC1 [Compound No. 81, 4-[1-[3-(Isopropylamino)-2-pyridyl]piperazin-4-yl-carbonyl]-1-[N-[2-(piperidin-1-yl)ethyl]carbamoyl]benzene]",32%,60%,–,–
"CC(C)Nc1cccnc1N1CCN(C(=O)c2ccc(C(=O)NC[C@H](C)O)cc2)CC1 [Compound No. 56, 1-[N-[(2S)-2-Hydroxypropyl]carbamoyl]-4-[1-[3-(isopropylamino)-2-pyridyl]piperazin-4-yl-carbonyl]benzene]",–,–,58%,76%
